Source: ChEMBL document CHEMBL1128639, “Mechanism of inhibition of poly(ADP-ribose) glycohydrolase by adenosine diphosphate (hydroxymethyl)pyrrolidinediol” (J Med Chem, 1995)

Tests used:
[1] = Compound was tested for its inhibitory activity against venom NAD glycohydrolase; design: species or system Bungarus fasciatus
[2] = Compound was tested for the inhibitor activity against NAD glycohydrolase.; design: species or system Bungarus fasciatus
[3] = target: Poly(ADP-ribose) glycohydrolase (Bos taurus) (UniProt O02776); assay: Kid describes the approach of hyperbolic function to its new limiting value as [I] increases, for the 1/V vs [I] replot.
[4] = target: Poly(ADP-ribose) glycohydrolase (Bos taurus) (UniProt O02776); assay: Kid describes the approach of hyperbolic function to its new limiting value as [I] increases, for the KM/V vs [I] replot.
[5] = target: Poly(ADP-ribose) glycohydrolase (Bos taurus) (UniProt O02776); assay: Inhibitor dissociation constant for the 1/V vs [I] replot.
[6] = target: Poly(ADP-ribose) glycohydrolase (Bos taurus) (UniProt O02776); assay: Inhibitor dissociation constant was determined by the analysis of the slope versus [inhibitor] replot.e.K

Poly(ADP-ribose) glycohydrolase (Bos taurus), sequence (O02776 whole entry): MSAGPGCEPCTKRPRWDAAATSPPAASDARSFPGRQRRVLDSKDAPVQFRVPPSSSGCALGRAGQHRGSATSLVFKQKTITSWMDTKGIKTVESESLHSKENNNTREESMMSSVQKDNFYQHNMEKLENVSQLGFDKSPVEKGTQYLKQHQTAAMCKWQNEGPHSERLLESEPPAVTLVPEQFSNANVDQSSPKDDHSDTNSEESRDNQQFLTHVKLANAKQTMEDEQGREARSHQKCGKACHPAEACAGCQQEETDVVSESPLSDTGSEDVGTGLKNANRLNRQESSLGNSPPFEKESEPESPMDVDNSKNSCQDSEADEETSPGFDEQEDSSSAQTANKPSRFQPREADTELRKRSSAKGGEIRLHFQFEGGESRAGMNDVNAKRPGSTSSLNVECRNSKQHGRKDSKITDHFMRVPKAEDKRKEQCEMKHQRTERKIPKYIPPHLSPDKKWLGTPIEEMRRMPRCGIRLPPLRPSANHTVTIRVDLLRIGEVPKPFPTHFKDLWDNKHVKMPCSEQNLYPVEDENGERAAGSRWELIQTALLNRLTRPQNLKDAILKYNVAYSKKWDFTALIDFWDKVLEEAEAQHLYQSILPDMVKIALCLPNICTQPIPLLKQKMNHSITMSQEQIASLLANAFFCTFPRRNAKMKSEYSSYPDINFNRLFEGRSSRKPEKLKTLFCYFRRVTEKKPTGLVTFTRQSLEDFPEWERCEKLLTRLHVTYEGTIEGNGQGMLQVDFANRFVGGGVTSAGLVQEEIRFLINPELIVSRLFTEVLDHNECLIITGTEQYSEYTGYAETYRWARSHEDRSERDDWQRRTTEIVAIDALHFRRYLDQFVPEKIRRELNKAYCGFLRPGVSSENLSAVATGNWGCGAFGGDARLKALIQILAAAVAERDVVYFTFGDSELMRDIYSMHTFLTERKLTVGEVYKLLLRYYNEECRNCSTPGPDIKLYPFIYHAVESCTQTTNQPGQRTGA

Work on `Nc1ncnc2c1ncn2[C@@H]1O[C@H](COP(=O)(O)OP(=O)(O)OC[C@H]2NC[C@H](O)[C@@H]2O)[C@@H](O)[C@H]1O` [ADENOSINE DIPHOSPHATE (HYDROXYMETHYL)PYRROLIDINEDIOL] yielded an IC50 [1] of 260 µM, a Ki [2] of 94 µM and a Kid [3] of 0.21 µM. The Kid [4] was 0.26 µM, the Kin [5] was 0.052 µM and the Kin [6] was 0.08 µM.
